ChEMBL document CHEMBL3046746, “Introduction to Receptors in Aging Diseases: GABA Receptors” (Med Chem Res, 2004)
The source made the active and inactive calls. The rule behind the calls is not given here.

Assays:
[1] = target: T1, Gamma-aminobutyric acid receptor subunit alpha-3/ beta-3/gamma-3 (Homo sapiens, UniProt P28472+P34903+Q99928); test: Binding affinity to GABAA alpha3beta3gamma3 (unknown origin); assay type: protein-complex assay
T1 sequence (P28472 whole entry): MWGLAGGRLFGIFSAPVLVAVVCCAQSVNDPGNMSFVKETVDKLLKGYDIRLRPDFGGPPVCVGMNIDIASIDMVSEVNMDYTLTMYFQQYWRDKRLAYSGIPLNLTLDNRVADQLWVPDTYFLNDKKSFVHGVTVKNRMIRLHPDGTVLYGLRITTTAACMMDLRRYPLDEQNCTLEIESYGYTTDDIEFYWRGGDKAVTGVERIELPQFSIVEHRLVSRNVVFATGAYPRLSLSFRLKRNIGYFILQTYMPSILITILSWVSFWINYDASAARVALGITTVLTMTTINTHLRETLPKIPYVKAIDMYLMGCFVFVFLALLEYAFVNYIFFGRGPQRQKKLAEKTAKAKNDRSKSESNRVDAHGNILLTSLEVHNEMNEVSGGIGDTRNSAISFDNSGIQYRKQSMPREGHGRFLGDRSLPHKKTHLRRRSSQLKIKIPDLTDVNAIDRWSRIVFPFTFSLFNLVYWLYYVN
T1 sequence (Q99928 whole entry): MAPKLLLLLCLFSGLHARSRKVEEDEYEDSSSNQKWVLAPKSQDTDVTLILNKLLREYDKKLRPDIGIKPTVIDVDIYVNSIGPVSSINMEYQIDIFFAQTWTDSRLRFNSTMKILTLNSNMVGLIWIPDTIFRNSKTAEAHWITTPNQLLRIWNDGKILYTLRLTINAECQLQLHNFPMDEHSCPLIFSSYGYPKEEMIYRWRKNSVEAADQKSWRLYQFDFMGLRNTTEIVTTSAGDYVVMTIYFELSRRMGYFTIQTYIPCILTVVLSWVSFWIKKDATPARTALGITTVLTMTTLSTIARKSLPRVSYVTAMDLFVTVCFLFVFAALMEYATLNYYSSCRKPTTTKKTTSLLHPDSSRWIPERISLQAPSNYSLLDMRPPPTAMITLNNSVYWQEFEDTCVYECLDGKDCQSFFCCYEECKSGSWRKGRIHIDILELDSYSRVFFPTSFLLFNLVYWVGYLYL
T1 sequence (P34903 whole entry): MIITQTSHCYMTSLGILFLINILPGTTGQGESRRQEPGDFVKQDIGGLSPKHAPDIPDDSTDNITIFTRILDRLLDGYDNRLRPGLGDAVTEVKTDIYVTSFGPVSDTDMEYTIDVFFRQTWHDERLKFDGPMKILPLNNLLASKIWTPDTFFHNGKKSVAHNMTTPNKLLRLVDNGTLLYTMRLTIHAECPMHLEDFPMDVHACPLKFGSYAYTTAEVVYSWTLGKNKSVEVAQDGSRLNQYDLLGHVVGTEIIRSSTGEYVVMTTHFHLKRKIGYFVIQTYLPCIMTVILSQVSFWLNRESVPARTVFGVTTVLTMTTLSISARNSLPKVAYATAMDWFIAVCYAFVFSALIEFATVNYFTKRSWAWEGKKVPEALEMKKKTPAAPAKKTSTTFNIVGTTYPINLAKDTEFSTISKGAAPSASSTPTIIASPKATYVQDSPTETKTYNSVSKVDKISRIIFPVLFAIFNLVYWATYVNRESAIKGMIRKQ

[2] = target: GABA-A receptor; alpha-1/beta-3/gamma-2 (Homo sapiens) (UniProt P14867+P18507+P28472); test: Modulation of GABA-Aalpha1beta3gamma2 in Homo sapiens (human) L(tk-) cells relative to GABA
Rattus norvegicus [3] = test: In vivo GABAA alpha5beta3gamma2 receptor occupancy in Rattus norvegicus (rat) assessed as inhibition of [3H]L-655,708 binding at 0.3 mg/kg, ip; assay type: functional; conditions: route intraperitoneal
[4] = target: T2, GABA-A receptor; alpha-5/beta-3/gamma-2 (Homo sapiens, UniProt P18507+P28472+P31644); test: Inverse agonist activity at GABAA alpha5beta3gamma2 in Homo sapiens (human) L(tk-) cells by patch clamp assay
T2 sequence (P18507 whole entry): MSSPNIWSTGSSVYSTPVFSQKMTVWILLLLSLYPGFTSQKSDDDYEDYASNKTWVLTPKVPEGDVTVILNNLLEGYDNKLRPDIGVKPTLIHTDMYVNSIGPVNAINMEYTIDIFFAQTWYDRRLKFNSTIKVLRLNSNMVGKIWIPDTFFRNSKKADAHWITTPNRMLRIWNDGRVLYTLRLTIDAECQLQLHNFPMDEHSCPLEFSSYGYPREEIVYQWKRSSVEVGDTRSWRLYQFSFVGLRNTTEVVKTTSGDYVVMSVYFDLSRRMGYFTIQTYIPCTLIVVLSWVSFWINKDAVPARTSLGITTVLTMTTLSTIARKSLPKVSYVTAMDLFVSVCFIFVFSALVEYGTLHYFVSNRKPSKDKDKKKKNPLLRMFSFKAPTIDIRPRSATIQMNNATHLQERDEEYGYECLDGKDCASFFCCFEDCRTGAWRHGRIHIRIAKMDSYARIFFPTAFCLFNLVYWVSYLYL
T2 sequence (P28472 whole entry): T1 sequence (P28472 whole entry)
T2 sequence (P31644 whole entry): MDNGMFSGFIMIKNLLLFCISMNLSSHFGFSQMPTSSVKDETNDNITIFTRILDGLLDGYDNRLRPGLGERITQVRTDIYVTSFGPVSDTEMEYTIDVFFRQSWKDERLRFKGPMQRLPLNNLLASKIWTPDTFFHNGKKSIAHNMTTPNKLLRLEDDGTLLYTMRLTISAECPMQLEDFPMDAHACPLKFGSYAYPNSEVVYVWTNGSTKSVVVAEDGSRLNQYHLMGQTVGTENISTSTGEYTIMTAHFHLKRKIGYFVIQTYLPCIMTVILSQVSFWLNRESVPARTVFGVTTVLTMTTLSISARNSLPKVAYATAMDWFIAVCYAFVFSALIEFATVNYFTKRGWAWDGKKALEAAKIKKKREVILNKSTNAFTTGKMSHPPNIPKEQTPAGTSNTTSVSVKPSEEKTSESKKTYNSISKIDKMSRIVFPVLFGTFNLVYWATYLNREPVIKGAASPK

Homo sapiens [5] = organism: Homo sapiens; test: Selectivity ratio of Ki for GABA-Aalpha1beta3gamma2 (unknown origin) to Ki for GABAA alpha5beta3gamma2 (unknown origin)
[6] = target: GABA-A receptor; alpha-2/beta-3/gamma-2 (Homo sapiens) (UniProt P18507+P28472+P47869); test: Antagonist activity at GABAA alpha2beta3gamma2 in Homo sapiens (human) L(tk-) cells by patch clamp assay relative to GABA
Rattus norvegicus [7] = test: Cognitive enhancing effect in Rattus norvegicus (rat) at 0.3 mg/kg, ip by water maze test; assay type: functional, organism-based; set-up: dose 0.3 mg/kg
[8] = target: GABA-A receptor; alpha-5/beta-3/gamma-2 (Homo sapiens) (UniProt P18507+P28472+P31644); test: Modulation of GABAA alpha5beta3gamma2 in Homo sapiens (human) L(tk-) cells patch clamp assay relative to GABA
Homo sapiens [9] = organism: Homo sapiens; test: Selectivity ratio of Ki for GABAA alpha3beta3gamma3 (unknown origin) to Ki for GABAA alpha5beta3gamma2 (unknown origin)
[10] = target: Gamma-aminobutyric acid receptor subunit alpha-3/ beta-3/gamma-3 (Homo sapiens) (UniProt P28472+Q99928+P34903); test: Antagonist activity at GABAA alpha3beta3gamma3 in Homo sapiens (human) L(tk-) cells relative to GABA
Homo sapiens [11] = organism: Homo sapiens; test: Selectivity ratio of Ki for GABAA alpha2beta3gamma2 (unknown origin) to Ki for GABAA alpha5beta3gamma2 (unknown origin)

Question: Which results are given for CC1(C)CC(=O)c2c(SCCO)sc(-c3nccs3)c2C1?
Answer: Ki [1]: 0.02 µM; Efficacy [2]: -21%; Occ (Rattus norvegicus [3]): 40%; EC50 [4]: 0.0007 µM; Ratio Ki (Homo sapiens [5]): 10; Activity [6]: Active; Activity (Rattus norvegicus [7]): Active; Emax [8]: -51%; Ratio Ki (Homo sapiens [9]): 10; Activity [10]: Active; Ratio Ki (Homo sapiens [11]): 10
